Common to all, as to assay: Matrix modified G-assay, small molecule competition titration
The target of assay [1] is T1, Tip1 (Homo sapiens, UniProt O14907).
T1 construct: made in house
T1 sequence (O14907 15-112 limits assumed): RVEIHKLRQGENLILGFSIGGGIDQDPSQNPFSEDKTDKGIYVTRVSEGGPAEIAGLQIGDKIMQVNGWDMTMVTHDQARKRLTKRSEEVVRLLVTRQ
As to conditions: competition with biotinylated PL peptide at GST-PDZ fusion protein; read-out: IC50 Tip1 (relative binding affinity by titration analysis). The protocol: (§1) Small Molecule Competition Assay. The reagents, supplies and protocol are as follows:
(§2) Reagents and Supplies: • (1) Nunc Maxisorp 96 well Immuno-plates • (2) PBS pH 7.4 (phosphate buffered saline, 8 g NaCl, 0.29 g KCl, 1.44 g Na2HPO4, 0.24 g • (3) KH2PO4, add H2O to 1 L and pH 7.4; 0.2μ filter) • (4) Assay Buffer: 2% BSA in PBS (20 g of BSA per liter PBS), ICN Biomedicals • (5) Goat anti-GST polyclonal antibody, stock 5 mg/ml, stored at 4° C., (Amersham Pharmacia); Diluted 1:1000 in PBS to a final concentration 5 μg/ml • (6) HRP-Streptavidin, 2.5 mg/2 ml stock stored @ 4° C., Zymed,- dilute 1:2000 into Assay buffer, final [0.5 μg/ml] • (7) Biotinylated peptides (from Anaspec, stored in −20° C. freezer) • (8) GST-PRISM proteins (stock stored @ −80° C., after 1st thaw store in −10° C. freezer) • (9) TMB (3,3′,5,5′, teramethylbensidine), ready to use • (10) 0.18M H2SO4 • (11) 12-w multichannel pipettor • (12) 200 μl LTS tips • (13) 50 ml reagent reservoirs • (14) 50 polypropylene conical tubes • (15) 15 ml polypropylene round-bottom tubes • (16) 1.5 ml microtubes • (17) Molecular Devices microplate reader (450 nm filters) • (18) SoftMax Pro software • (19) Assay buffer (1×PBS, 0.01% Triton X-100)
(§3) Protocol. The wells of eighteen to twenty 96-well plates were coated with 100 μl of 5 μg/ml anti-GST antibody (in each well), and left overnight at 4° C. The plates were then emptied by inverting and tapped dry on paper towels. 200 μl of blocking buffer (1×PBS/2% BSA) was added to each well and the plates were left for 1-2 hrs at room temperature. […] GST-PDZ fusion proteins were diluted to a final concentration of 5 μg/ml in 1×PBS/2% BSA and 50 μl was added to each well. After incubating for 1-2 hours at 4° C. excess unbound fusion protein was removed by washing, i.e., using the automatic plate washer (3× with room temperature 1×PBS).
(§4) PDZ ligand peptides, small molecule test compounds, and HRP were prepared in Assay Buffer as follows: • Biotinylated PDZ ligand synthetic peptides were prepared in one-quarter final volume, i.e., at 4× final concentration; • Steptavidin-HRP conjugate (Zymed) was diluted (1:500) in one-quarter final volume, i.e., at 4× final concentration; • Biotinylated peptides and Streptavidin-HRP were then mixed together, and incubated for 20 min at room temperature to form a signal generating peptide ligand complex; • While the peptide/HRP mix was incubating, test compound dilutions were prepared in half the final volume, i.e., at 2× final concentration; and, • Immediately before adding the final peptide ligand complex mixture to the plate, the drug titration was added to give a mixture with 1× concentrations and the final correct total volume. The signal generating peptide ligand/test compound mixtures were then added to each well of the plates to give 50 μl per well and the time of each addition was recorded. The plates were then incubated at room temperature, after the last peptide had been added, for exactly 30 min. After incubation, the plates were washed using the automatic plate washer (7× with room temperature 1×PBS). To detect the signal generating peptide ligand TMB substrate (for HRP) was added to each well of the plates at 100 μl per well and the time of TMB addition was recorded. The plates were then incubated in the dark at room temperature for a maximum of 30 min. The calorimetric reaction was then stopped using 100 μl of 0.18M H2SO4 30 minutes after adding TMB. The signal in each well of the plates were then determined by measuring the optical density at 450 nm.
(§5) The relative binding affinities of the compounds in FIG. 2A, and other, small molecule inhibitors were determined by titrating the compounds in the same competitive binding assay.

Assay [2] addresses T2, Shank 1 (Homo sapiens, UniProt Q9Y566).
T2 construct: made in house
T2 sequence (Q9Y566 663-757 limits assumed): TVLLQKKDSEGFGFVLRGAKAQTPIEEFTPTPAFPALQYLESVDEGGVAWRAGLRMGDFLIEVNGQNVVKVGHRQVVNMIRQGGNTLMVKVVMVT
As to conditions: competition with biotinylated PL peptide at GST-PDZ fusion protein; read-out: IC50 Shank 1 (relative binding affinity by titration analysis). The protocol:
as §1, §2, §3, §4, §5

Assay [3] deals with T3, PSD95 d2 (Homo sapiens, UniProt P78352).
T3 construct: made in house
As to conditions: competition with biotinylated PL peptide at GST-PDZ fusion protein; read-out: IC50 PSD95 d2 (relative binding affinity by titration analysis). The protocol:
as §1, §2, §3, §4, §5

Assay [4] addresses T4, PSD95 d1 (Homo sapiens, UniProt P78352).
T4 construct: made in house
As to conditions: competition with biotinylated PL peptide at GST-PDZ fusion protein; read-out: IC50 PSD95 d1 (relative binding affinity by titration analysis). The protocol: as §1, §2, §3, §4, §5

The target of assay [5] is T5, PSD95 d3 (Homo sapiens, UniProt P78352).
T5 construct: made in house
As to conditions: competition with biotinylated PL peptide at GST-PDZ fusion protein; read-out: IC50 PSD95 d3 (relative binding affinity by titration analysis). The protocol:
as §1, §2, §3, §4, §5

Assay [6] addresses T6, Magi1 d1 (Homo sapiens, UniProt Q96QZ7).
T6 construct: made in house
As to conditions: competition with biotinylated PL peptide at GST-PDZ fusion protein; read-out: IC50 Magi1 d1 (relative binding affinity by titration analysis). On the procedure: as §1, §2, §3, §4, §5

Structures are written as SMILES.

T6 sequence (Q96QZ7 472-554 limits assumed): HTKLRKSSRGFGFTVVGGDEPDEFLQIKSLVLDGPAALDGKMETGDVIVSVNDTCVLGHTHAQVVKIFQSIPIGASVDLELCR

As to `CCOc1ccc(NS(=O)(=O)c2cccc(C(=O)Nc3ccccc3C(=O)O)c2)cc1` [Compound 3019-0348], the IC50 in assay [1], in assay [2], in assay [3], in assay [4], in assay [5] and in assay [6] was more than 250 µM each time.

As to `O=C(Nc1ccccc1C(=O)O)c1cccc(NC(=O)C(c2ccccc2)c2ccccc2)c1` [Compound 3289-2331], the IC50 is more than 250 µM in assay [1]; more than 250 µM in assay [2]; more than 250 µM in assay [3]; more than 250 µM in assay [4]; more than 250 µM in assay [5]; 130 µM in assay [6].

Turning to `CCOc1ccc(NS(=O)(=O)c2cc(C(=O)Nc3ccccc3C(=O)O)ccc2C)cc1` [Compound 3558-0042], the IC50 in assay [1], in assay [2], in assay [3], in assay [4], in assay [5] and in assay [6] was more than 250 µM each time.

Take `Cc1ccc([N+](=O)[O-])cc1NC(=O)c1cc(S(=O)(=O)Nc2cccc(C(=O)O)c2)c(Cl)cc1Cl` [Compound 8009-5039]: the IC50 in assay [1], in assay [2], in assay [3], in assay [4], in assay [5] and in assay [6] was more than 250 µM throughout.

With `CC(=O)N1CCc2cc(S(=O)(=O)NC(Cc3ccccc3)C(=O)Nc3ccccc3C(=O)O)ccc21` (stereo not drawn) [Compound C450-0454], the IC50 is more than 250 µM in assay [1]; more than 250 µM in assay [2]; more than 250 µM in assay [3]; 206 µM in assay [4]; more than 250 µM in assay [5]; more than 250 µM in assay [6].

On to `COc1cccc(-c2nc3c(c(SCC(=O)Nc4cccc(C(=O)O)c4)n2)Cc2c(CO)cnc(C)c2O3)c1` [Compound E544-0129], for which the IC50 in assay [1] is more than 250 µM; in assay [2] it was 7.59 µM; in assay [3], 4.98 µM; in assay [4], 2.5 µM; in assay [5] it was 3.47 µM; in assay [6], 60.8 µM.

`O=C(NCCO)C(=O)Nc1ccccc1C(=O)O` [MC 247808]: the IC50 in assay [1] was more than 250 µM; in assay [2], more than 250 µM; in assay [3], 221 µM; in assay [4], more than 250 µM; in assay [5], more than 250 µM; in assay [6], more than 250 µM.

The values above are taken from US20080227684A1, “Small Molecule Inhibitors of PDZ Interactions” (priority 2005, published 2008).
